The values that follow come from ChEMBL document CHEMBL1201862, “PubChem BioAssay data set” (2004).

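How tested: cells in 96-well plates exposed to compound for 48 hours at five concentrations. GI50 marks 50% less growth.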 The source made the active and inactive calls. No stated cut-off is given here; in the data, active = GI50 up to about 1.1 µM and inactive = higher.

Test systems include 786-0; SK-OV-3; Malme-3M; KM12; CCRF-CEM; SR; NCI-H226; SN12C; NCI-H522; EKVX; COLO 205; A549; UACC-257; HCT-15; SK-MEL-5; OVCAR-3; OVCAR-4; RXF 393; A498; M14.
What all share (test): NCI-60 cell line screen, 48 h

For `O=Cc1cc(O)ccc1Br`, the GI50 is 22.6 µM (inactive) in the experiment with 786-0; 34.7 µM (inactive) in the experiment on SK-OV-3; 18.5 µM (inactive) with Malme-3M; 23.5 µM (inactive) in the experiment on KM12; 3.08 µM (inactive) with CCRF-CEM; 2.63 µM (inactive) in the experiment on SR. The GI50 was 28.8 µM (inactive) with NCI-H226; 19.8 µM (inactive) with SN12C; 38.4 µM (inactive) with NCI-H522; 65.6 µM (inactive) in the experiment with EKVX; 41.7 µM (inactive) with COLO 205; > 100 µM (inactive) in the experiment with A549. Besides, the GI50 in the experiment on UACC-257 was 41.5 µM (inactive); with HCT-15, 3.15 µM; in the experiment on SK-MEL-5 it was 17.3 µM (inactive); in the experiment on OVCAR-3, 6.3 µM (inactive); in the experiment on OVCAR-4, 15 µM (inactive); in the experiment on RXF 393, 27.4 µM (inactive). The GI50 is > 100 µM (inactive) with A498 and 5.45 µM (inactive) with M14.

Regarding `Clc1ccc(CCn2ccc3ccccc32)c(Cl)c1`, the GI50 in the experiment on 786-0, in the experiment on SK-OV-3, in the experiment on Malme-3M, in the experiment on KM12, with CCRF-CEM and in the experiment with SR was > 100 µM (inactive) throughout. In addition, the GI50 in the experiment on NCI-H226, in the experiment with SN12C, in the experiment with NCI-H522, in the experiment on EKVX, in the experiment with COLO 205 and in the experiment on A549 was > 100 µM (inactive) throughout. Also, the GI50 with UACC-257 is > 100 µM (inactive); with HCT-15, > 100 µM; in the experiment on SK-MEL-5, > 100 µM (inactive); with OVCAR-3, > 100 µM (inactive); in the experiment with OVCAR-4, > 100 µM (inactive); in the experiment with RXF 393, > 100 µM (inactive). For the same compound, the GI50 with A498 and in the experiment on M14 was > 100 µM (inactive) in each case.

Take `COc1ccc(Nc2nc(N)c(C(=O)c3c[nH]c4ccccc34)s2)cc1`: the GI50 was 2.15 µM (inactive) in the experiment with 786-0; 4.51 µM (inactive) in the experiment on SK-OV-3; 3.44 µM (inactive) in the experiment with Malme-3M; 0.689 µM (active) with KM12; 2.16 µM (inactive) in the experiment on CCRF-CEM; 0.0655 µM (active) with SR. The GI50 with NCI-H226 is 11.1 µM (inactive); in the experiment with SN12C, 3.61 µM (inactive); with NCI-H522, 0.0302 µM (active); with EKVX, 3.05 µM (inactive); with COLO 205, 0.731 µM (active); in the experiment on A549 it was 1.41 µM (inactive). In addition, the GI50 in the experiment on UACC-257 was 7.85 µM (inactive); in the experiment on HCT-15, 0.433 µM; in the experiment with SK-MEL-5, 1.3 µM (inactive); with OVCAR-3, 0.745 µM (active); with OVCAR-4 it was 5.42 µM (inactive); with RXF 393, 2.03 µM (inactive). Moreover, the values for the GI50 in the experiment with A498 and with M14 were 2.05 µM (inactive) and 1.23 µM (inactive), respectively.

As for `O=C(CCCN1CCC(C(O)c2ccc(F)cc2)CC1)c1ccc(F)cc1` (stereo not drawn), the GI50 was 44.9 µM (inactive) in the experiment on 786-0; 69.8 µM (inactive) in the experiment on SK-OV-3; 55.3 µM (inactive) in the experiment with Malme-3M; 56.6 µM (inactive) with KM12; 76.2 µM (inactive) in the experiment on CCRF-CEM; 69.8 µM (inactive) in the experiment with SR. In addition, the GI50 with NCI-H226 was 53.3 µM (inactive); with SN12C, 71.9 µM (inactive); in the experiment with NCI-H522, 66.8 µM (inactive); in the experiment with EKVX, 62.1 µM (inactive); in the experiment on COLO 205, 55.7 µM (inactive); with A549, 64 µM (inactive). Besides, the GI50 is 60.7 µM (inactive) in the experiment on UACC-257; 62.2 µM with HCT-15; 46.7 µM (inactive) in the experiment with SK-MEL-5; 57 µM (inactive) in the experiment with OVCAR-3; 61 µM (inactive) in the experiment with OVCAR-4; 41.1 µM (inactive) in the experiment on RXF 393. Also, the GI50 with A498 is 49 µM (inactive); with M14 it was 51.6 µM (inactive).

On to `Cn1c(=O)c2nc3sc4c(n3c2n(C)c1=O)C(=O)c1ccccc1C4=O`, for which the GI50 in the experiment with 786-0 was > 68.1 µM (inactive); in the experiment on SK-OV-3 it was > 47.5 µM (inactive); in the experiment with Malme-3M it was > 90.2 µM (inactive); in the experiment on KM12 it was > 100 µM (inactive); in the experiment on CCRF-CEM it was 17.6 µM (inactive); in the experiment with SR, 19.5 µM (inactive). Moreover, the GI50 with NCI-H226 is 65.8 µM (inactive); in the experiment on SN12C it was > 69.2 µM (inactive); in the experiment on NCI-H522 it was 11 µM (inactive); in the experiment with EKVX, > 100 µM (inactive); in the experiment on COLO 205 it was > 73.5 µM (inactive); in the experiment with A549 it was > 81.7 µM (inactive). The GI50 in the experiment with UACC-257 is > 88.9 µM (inactive); in the experiment on HCT-15 it was > 59.6 µM; with SK-MEL-5 it was > 75 µM (inactive); in the experiment with OVCAR-3, 12.1 µM (inactive); in the experiment with OVCAR-4, > 64.6 µM (inactive); in the experiment on RXF 393, > 26.5 µM (inactive). The GI50 with A498 and with M14 was > 100 µM (inactive) throughout.

Turning to `COc1cccc(/C=C2/S/C(=N/Nc3nc(C)c(C(C)=O)s3)NC2=O)c1O`, the GI50 with 786-0 was 27.8 µM (inactive); in the experiment on SK-OV-3, 66.8 µM (inactive); in the experiment with Malme-3M, 33 µM (inactive); with KM12, 36.2 µM (inactive); in the experiment with CCRF-CEM, 18.2 µM (inactive); in the experiment with SR, 27.7 µM (inactive). The GI50 in the experiment with NCI-H226 was 37.7 µM (inactive); in the experiment with SN12C, 31.7 µM (inactive); in the experiment with NCI-H522 it was 17.3 µM (inactive); in the experiment with EKVX, 24.9 µM (inactive); in the experiment on COLO 205 it was 27.5 µM (inactive); with A549, 37.9 µM (inactive). The GI50 was 25.4 µM (inactive) in the experiment with UACC-257; 26.2 µM in the experiment with HCT-15; 20.9 µM (inactive) in the experiment on SK-MEL-5; 22.5 µM (inactive) with OVCAR-3; 30.3 µM (inactive) with OVCAR-4; 28.8 µM (inactive) with RXF 393. Also, the GI50 with A498 was 33.9 µM (inactive); in the experiment on M14, 32.8 µM (inactive).

For `Oc1cccc(-c2nc3ccccc3s2)c1`, the GI50 in the experiment with 786-0 was 71.6 µM (inactive); in the experiment on SK-OV-3, 27.9 µM (inactive); with Malme-3M it was 2.99 µM (inactive); in the experiment with KM12, 14.7 µM (inactive); in the experiment with CCRF-CEM it was 57 µM (inactive); in the experiment with SR it was 29.2 µM (inactive). Moreover, the GI50 with NCI-H226 was 10.8 µM (inactive); in the experiment with SN12C it was 33.8 µM (inactive); in the experiment on NCI-H522 it was 17.6 µM (inactive); in the experiment with EKVX, 5.69 µM (inactive); in the experiment with COLO 205, 35.9 µM (inactive); in the experiment on A549, 26.2 µM (inactive). For the same compound, the GI50 in the experiment on UACC-257 was 26.4 µM (inactive); with HCT-15 it was 25.5 µM; in the experiment with OVCAR-3, 21.6 µM (inactive); in the experiment on OVCAR-4 it was 19.1 µM (inactive); in the experiment with RXF 393, 32.1 µM (inactive); in the experiment on A498, 52.5 µM (inactive). In addition, the GI50 in the experiment on M14 is 23.2 µM (inactive).

`CCCCCCCCCCC(C)CCCCCCC(=O)OCC(COP(=O)([O-])OCC[N+](C)(C)C)OC(=O)CCCCCCC(C)CCCCCCCCCC` (stereo not drawn): the GI50 with 786-0, in the experiment on SK-OV-3, with Malme-3M, in the experiment on KM12, in the experiment with CCRF-CEM and with SR was > 100 µM (inactive) in each case. For the same compound, the GI50 in the experiment on NCI-H226, with SN12C, in the experiment with NCI-H522, in the experiment on EKVX, in the experiment on COLO 205 and with A549 was > 100 µM (inactive) in each case. The GI50 in the experiment with UACC-257 is > 100 µM (inactive); in the experiment with HCT-15, > 100 µM; in the experiment on SK-MEL-5 it was > 100 µM (inactive); in the experiment with OVCAR-3, > 100 µM (inactive); in the experiment with OVCAR-4 it was > 100 µM (inactive); in the experiment on RXF 393, > 100 µM (inactive). Further, the GI50 in the experiment with A498 and with M14 was > 100 µM (inactive) each time.

Take `COC1OC2COC1(OC)C1OC(C)(C)OC21` (stereo not drawn): the GI50 in the experiment with 786-0, with SK-OV-3, in the experiment on Malme-3M, in the experiment on KM12, with CCRF-CEM and in the experiment with SR was > 100 µM (inactive) each time. Besides, the GI50 in the experiment on NCI-H226, in the experiment on SN12C, in the experiment on NCI-H522, in the experiment with EKVX, in the experiment on COLO 205 and in the experiment with A549 was > 100 µM (inactive) in each case. For the same compound, the GI50 in the experiment with UACC-257 is > 100 µM (inactive); in the experiment with HCT-15, > 100 µM; in the experiment on SK-MEL-5, > 100 µM (inactive); in the experiment with OVCAR-3 it was > 100 µM (inactive); in the experiment with OVCAR-4 it was > 100 µM (inactive); in the experiment on RXF 393 it was > 100 µM (inactive). Further, the GI50 in the experiment with A498 and in the experiment on M14 was > 100 µM (inactive) throughout.

With `Nn1c(S)nnc1COc1cccc(OCc2nnc(S)n2N)c1`, the GI50 in the experiment on 786-0 was 34.3 µM (inactive); in the experiment with SK-OV-3, > 100 µM (inactive); with Malme-3M, > 100 µM (inactive); in the experiment with KM12, > 100 µM (inactive); in the experiment with CCRF-CEM, 30.7 µM (inactive); with SR it was 2.45 µM (inactive). The GI50 was > 100 µM (inactive) in the experiment with NCI-H226; > 100 µM (inactive) in the experiment on SN12C; 65.3 µM (inactive) with NCI-H522; > 100 µM (inactive) in the experiment with EKVX; 98.4 µM (inactive) in the experiment on COLO 205; > 100 µM (inactive) in the experiment on A549. For the same compound, the GI50 was > 100 µM (inactive) in the experiment on UACC-257; 58.7 µM in the experiment with HCT-15; > 100 µM (inactive) with OVCAR-3; > 100 µM (inactive) in the experiment on OVCAR-4; > 100 µM (inactive) in the experiment with RXF 393; > 100 µM (inactive) in the experiment on A498. In addition, the GI50 with M14 is > 100 µM (inactive).
